Laboratory results as given in article PMC7414031, “Correlation between hemolytic activity, cytotoxicity and systemic in vivo toxicity of synthetic antimicrobial peptides” (Scientific Reports, 2020).
Converted amounts (≈) assume the structure as drawn. Square brackets hold non-standard residues; d marks the D form. Peptide text beside a SMILES is read from it. N(1-naphthylmethyl)Gly = O=C(O)CNCc1cccc2ccccc12; Nphe = O=C(O)CNCc1ccccc1; NBuGly = CCCCNCC(=O)O

Columns and labels:
[1] = in vitro; format: cell-based, human; conditions: human
Protocol: (§1) The haemolytic activity of the 24 structurally related peptides (Table 1) was evaluated in erythrocytes from four different species (human, canine, bovine and rat) employing standard methodology. The subsequent release of haemoglobin was used to assess haemolytic activity as function of peptide and peptidomimetic concentration, with concentrations ranging from 0.15 to 150 µM (Presented in whole in Supplementary information Table S1–S4).
(§2) Human and rat (Sprague–Dawley) blood samples were purchased by Bioreclamation IVT (Westbury, NY, USA), collected in tubes containing heparin as anticoagulant and stored at 4 °C before use. Dog and bovine whole blood was collected from in-house animals at Zoetis Animal Health, Kalamazoo, Michigan and stored at 4 °C in tubes containing heparin as anticoagulant. 10 mL of each whole blood sample were centrifuged at 1,500 × g for 5 min and the resulting plasma fraction was removed from the samples. The pellets were washed with an equal volume (10 mL) of saline, mixing by inversion. The centrifuging and washing steps were repeated 5 times. After the last washing step, a volume of PBS was added, and the resulting samples were diluted 1:10 with PBS to yield an RBC concentration of ~ 5 × 10^8 RBC/mL. The assay was performed in a 384-well polypropylene microplate (Greiner 784201, Greiner Bio-One International, GMBH) through a Bravo Liquid Handling Platform 384 system (Agilent Technologies, Santa Clara, CA, USA) according to the previously published procedures. The compounds were tested in serial 1:1 dilutions in PBS, with final concentrations ranging from 150 to 1.2 µM. Melittin was used as reference lytic peptide. 1% TritonX100 and PBS were used as positive and negative (diluent) controls, respectively. The final concentrations were obtained by adding to the wells 7 µL of each solution, melittin or PBS, followed by 63 µL of RBCs to each well. The plate was sealed, shaken on a plate shaker for 20 s, incubated for one hour at 37 °C. Finally, it was centrifuged at 1,500 × g for 5 min at room temperature. 60 µL of supernatants were removed from all plate wells via a Bravo 384 robot and transferred to a flat-bottomed 384-well plate (Greiner UV-Star #7810801, Greiner Bio-One International, GMBH). The plate was centrifuged at 1,000 g for 1 min to remove air bubbles and optical density was measured at 405 nm using a plate reader. Percentage of haemolysis was calculated with the following equation: %haemolysis=(absorbance of test sample)-absorbance of diluent/absorbance of positive control-absorbance of diluent×100.

[2] = test system: human erythrocytes; test: in vitro; format: cell-based; conditions: for IC10 haemolysis: human erythrocytes; for IC50: red cells of human
Protocol: as §1, §2

[3] = in vitro; format: cell-based, dog; conditions: dog
Protocol: as §1, §2

[4] = test system: canine erythrocytes; test: in vitro; format: cell-based, dog; conditions: for IC10 haemolysis: canine erythrocytes; for IC50: red cells of canine
Protocol: as §1, §2

[5] = in vitro; format: cell-based, rat (Sprague–Dawley); conditions: Sprague-Dawley, rat
Protocol: as §1, §2

[6] = test system: rat erythrocytes; test: in vitro; format: cell-based, rat (Sprague–Dawley); conditions: for IC10 haemolysis: rat erythrocytes; for IC50: red cells of rat
Protocol: as §1, §2

[7] = in vitro; format: cell-based, bovine; conditions: bovine
Protocol: as §1, §2

[8] = test system: bovine erythrocytes; test: in vitro; format: cell-based; conditions: bovine erythrocytes
Protocol: as §1, §2

[9] = test system: HaCaT cells; format: cell-based, human; conditions: 1 h
Protocol: (§3) An immortalised human keratinocyte (HaCaT) cell line (Gift from David Gram Naym at Bispebjerg Hospital, Denmark), a human liver cancer cell line (HepG2; ATCC HB-8065) and a human epithelial cervical cancer cell line (HeLa; ATCC CCL-2) were cultured to ∼90% confluence after 21–25 h of growth under standard conditions (5% CO2 at 37 °C). Cells were cultured in Dulbecco’s Modified Eagle’s Medium supplemented with 10% (v/v) fetal bovine serum (FBS). All culture media were supplemented with penicillin (100 IU/mL) and streptomycin (100 μg/mL). All cell media and supplements were obtained from Sigma-Aldrich (St. Louis, MO, United States). The 96-well plates were supplied by Corning Costar (Sigma-Aldrich, Brøndby, Denmark). Cell viability assessment was performed on cell monolayers grown to ∼90% confluence in 96-well plates by using the MTS/PMS assay as previously described. Briefly, the adhered cells were washed with PBS solution (37 °C) (ThermoFisher Scientific, Roskilde) and exposed for 1 h at 37 °C to 100 μL of peptides dissolved in the medium also used for culturing of the cell line (at concentrations in the range 0–1,000 μg/mL). The cells were subsequently washed twice with 37 °C PBS and then 100 μL of an MTS/PMS solution in media, consisting of 240 μg/mL MTS (Promega, Madison, WI, United States) and 2.4 mg/mL PMS (Promega, Madison, WI, United States), was added to the cells, which then were incubated for 1 h at 37 °C protected from light. A plate reader (SpectraMax i3X; Molecular devices, San Jose, CA) was used to measure the absorbance at 492 nm. The relative viability was calculated by using 0.2% (w/v) sodium dodecyl sulfate (SDS) as the positive control, while cells exposed to medium without test compound were used as the negative control.

[10] = test system: HeLa cells; format: cell-based, human; conditions: 1 h
Protocol: as §3

[11] = test system: Staphylococcus pseudintermedius; conditions: cited from earlier work; for S.p. MIC: Staphylococcus pseudintermedius, Table S5, in µM
[12] = test system: Staphylococcus aureus; parameters: method as in PMID 30842436; conditions: cited from earlier work
[13] = test system: Pseudomonas aeruginosa; parameters: method as in PMID 30842436; conditions: cited from earlier work
[14] = test system: human erythrocytes; conditions: cited from earlier work

SMILES | hemolysis at 1 h, 150 µM [1] [%] | IC10 haemolysis [2] [µM] | IC50 [2] [µM] | hemolysis at 1 h, 150 µM [3] [%] | IC10 haemolysis [4] [µM] | IC50 [4] [µM] | hemolysis at 1 h, 150 µM [5] [%] | IC10 haemolysis [6] [µM] | IC50 [6] [µM] | hemolysis at 1 h, 150 µM [7] [%] | IC10 haemolysis [8] [µM] | IC50 [9] [µM] | IC50 [10] [µM] | S.p. MIC [11] [µM] | MIC against Staphylococcus pseudintermedius [11] [µg/mL] | MIC against Staphylococcus aureus [12] [µg/mL] | MIC against Pseudomonas aeruginosa [13] [µg/mL] | Previously reported haemolytic activity against human erythrocytes (in words) [14] | Haemolysis at 80 µM (in words) [2] | Haemolysis at 80 µM (in words) [4] | other results
CC(C)C[C@H](NC(=O)[C@H](CCCCN)NC(=O)[C@@H](N)CCCCN)C(=O)N[C@@H](CCCCN)C(=O)N[C@@H](Cc1ccc2ccccc2c1)C(=O)N[C@@H](Cc1ccccc1)C(=O)N[C@@H](Cc1ccc2ccccc2c1)C(N)=O [Compound 1, Lys-Lys-Leu-Lys-(2-Nal)Ala-Phe-(2-Nal-)Ala] (HELM PEPTIDE1{K.K.L.K.[O=C([C@H](Cc1ccc2ccccc2c1)N[*:1])[*:2]].F.[O=C([C@H](Cc1ccc2ccccc2c1)N[*:1])[*:2]].[am]}$$$$V2.0) | < 8 | > 150 | > 150 | 19.7 | 34.2 | > 150 | < 8 | > 150 | > 150 | 32.5 | 45.1 | 654 | 462 | 7.6 | 8 (≈ 7.57 µM) | 16 (≈ 15.1 µM) | 32 (≈ 30.3 µM) | – | – | – | –
CC(C)C[C@H](NC(=O)[C@H](CCCCN)NC(=O)[C@@H](N)CCCCN)C(=O)N[C@@H](CCCCN)C(=O)N[C@@H](Cc1cccc2ccccc12)C(=O)N[C@@H](Cc1ccccc1)C(=O)N[C@@H](Cc1cccc2ccccc12)C(N)=O [Compound 6, Lys-Lys-Leu-Lys-(1-Nal)Ala-Phe-(1-Nal)Ala] (HELM PEPTIDE1{K.K.L.K.[O=C([C@H](Cc1cccc2ccccc12)N[*:1])[*:2]].F.[O=C([C@H](Cc1cccc2ccccc12)N[*:1])[*:2]].[am]}$$$$V2.0; N-terminus assumed) | 42.7 | 55.6 | > 150 | 101 | 12.2 | 37 | 18.2 | 120.5 | > 150 | 39.9 | 23.6 | – | – | – | 8 (≈ 7.57 µM) | 32 (≈ 30.3 µM) | 8 (≈ 7.57 µM) | high in vitro haemolytic activity | – | – | –
CC(C)C[C@@H](NC(=O)[C@H](CCCCN)NC(=O)[C@@H](Cc1cccc2ccccc12)NC(=O)[C@@H](Cc1ccccc1)NC(=O)[C@H](N)Cc1cccc2ccccc12)C(=O)N[C@@H](CCCCN)C(=O)N[C@@H](CCCCN)C(N)=O [Compound 8, (1-Nal)Ala-Phe-(1-Nal)Ala-Lys-Leu-Lys-Lys] (HELM PEPTIDE1{[N[C@H](Cc1cccc2ccccc12)C(=O)[*:2]].[dF].[O=C([C@@H](Cc1cccc2ccccc12)N[*:1])[*:2]].K.[dL].K.K.[am]}$$$$V2.0) | 34.3 | 57.0 | > 150 | 25.8 | 66.0 | > 150 | < 8 | > 150 | > 150 | < 8 | – | – | – | – | 16 (≈ 15.1 µM) | 32 to 64 | > 64 | no haemolytic activity | – | – | –
CC(C)C[C@@H](NC(=O)[C@@H](Cc1cccc2ccccc12)NC(=O)[C@@H](Cc1ccccc1)NC(=O)[C@H](N)Cc1cccc2ccccc12)C(=O)N[C@@H](CCCCN)C(=O)N[C@@H](CCCCN)C(=O)N[C@@H](CCCCN)C(N)=O [Compound 9, (1-Nal)Ala-Phe-(1-Nal)Ala-Leu-Lys-Lys-Lys] (HELM PEPTIDE1{[N[C@H](Cc1cccc2ccccc12)C(=O)[*:2]].[dF].[O=C([C@@H](Cc1cccc2ccccc12)N[*:1])[*:2]].[dL].K.K.K.[am]}$$$$V2.0) | 30.8 | 104.1 | > 150 | 25.5 | 65.0 | > 150 | < 8 | > 150 | > 150 | < 8 | – | – | – | – | 16 (≈ 15.1 µM) | 32 (≈ 30.3 µM) | 32 (≈ 30.3 µM) | no haemolytic activity | – | – | –
CCCCN(CC(=O)N(CC(=O)N(CC(=O)N(CC(N)=O)Cc1cccc2ccccc12)Cc1ccccc1)Cc1cccc2ccccc12)C(=O)[C@H](CCCCN)NC(=O)[C@H](CCCCN)NC(=O)[C@@H](N)CCCCN [Compound 15, Lys-Lys-Lys-(N-Bu)Gly-(N1-Nal)Gly-(N-Phe)Gly-(N1-Nal)Gly] (H-KKK[NBuGly][N(1-naphthylmethyl)Gly][Nphe][N(1-naphthylmethyl)Gly]-NH2) | 94.2 | 8.4 | 41.7 | 87.1 | 11.6 | 65.7 | 99.5 | 35.61 | 47.6 | < 8 | – | 297 | 394 | 3.8 | 4 (≈ 3.79 µM) | 16 (≈ 15.1 µM) | 32 (≈ 30.3 µM) | – | near total haemolysis | near total haemolysis | Haemolysis at 80 µM (in words) [6]: near total haemolysis
CCCC[C@H](NC(=O)[C@H](CCCCN)NC(=O)[C@H](CCCCN)NC(=O)[C@@H](N)CCCCN)C(=O)N[C@@H](Cc1ccc2ccccc2c1)C(=O)N[C@@H](Cc1ccccc1)C(=O)N[C@@H](Cc1ccc2ccccc2c1)C(N)=O [Compound 18, Lys-Lys-Lys-Nle-(2-Nal)Ala-Phe-(2-Nal)Ala] (HELM PEPTIDE1{K.K.K.[Nle].[O=C([C@H](Cc1ccc2ccccc2c1)N[*:1])[*:2]].F.[O=C([C@H](Cc1ccc2ccccc2c1)N[*:1])[*:2]].[am]}$$$$V2.0) | 58.8 | 18.7 | 95.6 | 101 | 21.4 | 42.7 | 98.6 | 64.4 | 87.8 | < 8 | – | – | – | – | 2 to 4 | 32 to 64 | 8 (≈ 7.57 µM) | high in vitro haemolytic activity | near total haemolysis | near total haemolysis | Haemolysis at 80 µM (in words) [6]: near total haemolysis
